Assay results: patent publication US20110301239A1, “USE OF NOVEL LIPID MEDIATORS TO INHIBIT ANGIOGENESIS” (The Brigham and Women's Hospital, Inc., priority 2008, published 2011)

Legend:
PMN infiltration = test: Peritonitis model, PMN infiltration; format: in vivo
[1] = system: suture-induced corneal NV; test: Suture-induced inflammatory corneal angiogenesis (slit-lamp NV score, CD31/LYVE-1 vessel density); format: in vivo, BALB/c mice; conditions: for angiogenic response (corneal neovessels by slit lamp biomicroscopy): 2-week time course, subconjunctival every 48 h, relative to vehicle control; for significant changes in the density of lymphatic vessels / BV density (CD31high/LYVE-1−): day 14 after suture placement; for significant changes in the density of lymphatic vessels: relative to vehicle controls; for BV density (CD31high/LYVE-1−): mean±SEM, n=6, vehicle 23.18±1.12%
Procedure: (§1) Six to eight-week-old male BALB/c (Taconic Farms, Germantown, N.Y.) mice were used in all experiments. All experimental protocols were approved by the Schepens Eye Research Institute Animal Care and Use Committee, and all animals were treated according to the Association for Research in Vision and Ophthalmology Statement for the Use of Animals in Ophthalmic and Vision Research.
(§2) The standard model for induction of inflammatory corneal NV is associated with development of intrastromal vessels in close association with a mixed-cell (primarily neutrophilic) infiltrate.^14,15 Three interrupted sutures (11-0 nylon, Sharpoint; Vanguard, Houston, Tex.) were placed intrastromally with two stromal incursions extending over 120° of the corneal circumference each to induce inflammatory corneal NV, which is also associated with significant LA, as described previously.^14 The corneas were followed by slit-lamp biomicroscopy for corneal NV development. NV was graded between 0 and 3, with increments of 0.5, using a grid system per each corneal quadrant based on the centripetal extent of the neovascular branches from the limbus. Scores for each quadrant then summed to derive the NV index (range 0 to 12) for each eye, as previously described.^14
(§3) BALB/c mice were randomized to receive RvD1, RvE1 or vehicle (normal saline) by subconjunctival injection in a masked fashion after suture or hydron pellet placement. The compounds were administered at a dose of 100 ng/10 μl per mouse every 48 h after suture or pellet placed. For these experiments, RvD1 and RvE1 were prepared by total organic synthesis as reported previously,^17,18 in the total organic synthesis core for NIH P-50 DE0169191. The physical properties were monitored routinely via LC/MS/MS matching the reported biological and physical properties prior to analysis in present experiments.
(§4) Full thickness corneal tissue or 8 μm-frozen sections were fixed in acetone for 15 minutes at room temperature. To block non-specific staining, anti-FcR mAb ([…], FcγIII/II receptor) or 10% goat serum was used before primary antibodies or isotype-matched control antibodies were applied at 4° C. overnight. Thereafter, samples were incubated with secondary antibodies at RT. Each step was followed by three thorough washings in PBS for 5-10 minutes. Finally, the samples were covered with mounting medium (Vector Laboratories, Burlingame, Calif.) and analyzed by epifluorescence microscopy (Eclipse E800; Nikon, Tokyo, Japan). The following antibodies were used: FITC-conjugated rat anti-mouse CD31 (Santa Cruz Biotechnology, Santa Cruz, Calif.), purified rat anti-mouse neutrophil (NIMP-R14, Abcam, Cambridge, Mass.), purified rat anti-mouse F4/80 (Novus Biologicals, Littleton, Colo.) and purified rabbit anti-mouse LYVE-1 (Abcam, Cambridge, Mass.). The secondary antibodies were Rodamine-conjugated donkey anti-rabbit IgG and Rodamine-conjugated goat anti-rat IgG (Santa Cruz Biotechnology, Santa Cruz, Calif.). Isotype controls included FITC-conjugated rat IgG2a, purified rat IgG2b, and purified rabbit IgG (Santa Cruz Biotechnology, Santa Cruz, Calif.).
To quantify corneal angiogenesis, digital pictures of corneal flat-mounts were taken using an image analysis system (Spot Image Analysis, Diagnostic Instruments, Sterling Heights, Mich.). The areas covered by CD31^high/LYVE-1^−-vessels (blood vessels) or CD31^lowLYVE-1^high vessels (lymphatics) were measured morphometrically using NIH Image J software (version 1.34s; http://rsb.info.nih.gov/ij). The total corneal area was outlined using the inner-most vessel of the limbal arcade as the border. The vessel density was calculated by the proportion of neovascularized area to the whole corneal area.

VEGF-C = test: Real-time PCR of VEGF-C mRNA in suture-inflamed corneas; format: in vivo, BALB/c mice; conditions: 24 h and 72 h after suture placement, vs vehicle-treated group
Procedure: (§5) Six to eight-week-old male BALB/c (Taconic Farms, Germantown, N.Y.) mice were used in all experiments. All experimental protocols were approved by the Schepens Eye Research Institute Animal Care and Use Committee, and all animals were treated according to the Association for Research in Vision and Ophthalmology Statement for the Use of Animals in Ophthalmic and Vision Research. […]
(§6) BALB/c mice were randomized to receive RvD1, RvE1 or vehicle (normal saline) by subconjunctival injection in a masked fashion after suture or hydron pellet placement. […] The physical properties were monitored routinely via LC/MS/MS matching the reported biological and physical properties prior to analysis in present experiments. […]
(§7) A combined-method for total RNA isolation was employed, using Trizol (Invitrogen Corp., Carlsbad, Calif.) and RNeasy MinElute Spin Columns (Qiagen, Valencia, Calif.), as described previously.^21 Reverse transcription of total RNA was conducted using oligo(dT)20 primer and Superscript™ III Reverse Transcriptase (Invitrogen, Carlsbad, Calif.). […] The mean density of each band was measured by using NIH image J software. […]

TNF-α = test: Real-time PCR of TNF-α mRNA in suture-inflamed corneas; format: in vivo, BALB/c mice; conditions: vs vehicle
Procedure: as §1, §2, §3
Corneas were carefully dissected to ensure that the conjunctival and iris tissues were not included. To extract mRNA from whole-thickness corneas, two corneas were pooled as a sample in each group. To extract mRNA from corneal epithelial and stroma-endothelial layers separately, intact corneas were placed in 30 μl of RNA stabilization reagent (RNAlater, Qiagen, Valencia, Calif.) at 4° C. overnight and then stored at −30° C. for 2-3 days. […]
as §7

macrophages = test: Macrophage infiltration in suture-inflamed corneas (anti-F4/80 staining of cross-sections); format: in vivo, BALB/c mice; conditions: 72 h after suture placement; 100 ng/10 μl subconjunctival; mean±SEM, n=3; vehicle 83±3
Procedure: as §5
BALB/c mice were randomized to receive RvD1, RvE1 or vehicle (normal saline) by subconjunctival injection in a masked fashion after suture or hydron pellet placement. […] The physical properties were monitored routinely via LC/MS/MS matching the reported biological and physical properties prior to analysis in present experiments.
Full thickness corneal tissue or 8 μm-frozen sections were fixed in acetone for 15 minutes at room temperature. […] Finally, the samples were covered with mounting medium (Vector Laboratories, Burlingame, Calif.) and analyzed by epifluorescence microscopy (Eclipse E800; Nikon, Tokyo, Japan). […]

VEGF-A = test: Real-time PCR of VEGF-A mRNA in suture-inflamed corneas; format: in vivo, BALB/c mice; conditions: 24 h and 72 h after suture placement, vs vehicle-treated group
Procedure: as §5, §6, §7

VEGF-D = test: Real-time PCR of VEGF-D mRNA in suture-inflamed corneas; format: in vivo, BALB/c mice; conditions: relative to vehicle-treated controls
Procedure: as §5, §6, §7

[2] = system: VEGF-A-induced corneal HA and LA; test: Corneal micropocket assay, VEGF-A pellet; format: in vivo, BALB/c mice; conditions: day 7; for BV density: VEGF-A micropellet, mean±SEM, n=4, vehicle 14.75±3.8%, not significantly lower; for reduction of LA: stimulated by VEGF-A micropellet
Procedure: as §1
(§8) The corneal micropocket assay in mice and quantification of the resultant NV has been described previously.^16,17 In brief, 0.3 μl of hydron pellets (IFN Sciences, New Brunswick, N.J.) containing 30 ng of murine IL-1β (R&D Systems, Minneapolis, Minn.) or 200 ng of VEGF-A (gift from BRB Preclinical Repository, National Cancer Institute) were prepared and implanted into the corneal stroma of male BALB/c mice. After 7 days the animals were sacrificed and the corneas were harvested for quantitative analysis of HA and LA.
as §3
(§9) Full thickness corneal tissue or 8 μm-frozen sections were fixed in acetone for 15 minutes at room temperature. To block non-specific staining, anti-FcR mAb ([…], FcγIII/II receptor) or 10% goat serum was used before primary antibodies or isotype-matched control antibodies were applied at 4° C. overnight. Thereafter, samples were incubated with secondary antibodies at RT. Each step was followed by three thorough washings in PBS for 5-10 minutes. Finally, the samples were covered with mounting medium (Vector Laboratories, Burlingame, Calif.) and analyzed by epifluorescence microscopy (Eclipse E800; Nikon, Tokyo, Japan). […]
(§10) To quantify corneal angiogenesis, digital pictures of corneal flat-mounts were taken using an image analysis system (Spot Image Analysis, Diagnostic Instruments, Sterling Heights, Mich.). The areas covered by CD31^high/LYVE-1^−-vessels (blood vessels) or CD31^lowLYVE-1^high vessels (lymphatics) were measured morphometrically using NIH Image J software (version 1.34s; http://rsb.info.nih.gov/ij). […] The vessel density was calculated by the proportion of neovascularized area to the whole corneal area.

neutrophils = test: Neutrophil infiltration in suture-inflamed corneas (anti-neutrophil NIMP-R14 staining of cross-sections); format: in vivo, BALB/c mice; conditions: for neutrophils in inflamed cornea: 100 ng/10 μl subconjunctival at 0 h and 48 h, mean±SEM, n=3; for inhibition of neutrophils recruitment into the inflamed corneas: at 24 and 72 h, compared to vehicle-treated group, p<0.05
Procedure: as §1, §2, §3, §4

[3] = system: IL-1β-induced corneal HA and LA; test: Corneal micropocket assay, IL-1β pellet; format: in vivo, BALB/c mice; conditions: day 7; for BV density: IL-1β micropellet, mean±SEM, n=4, vehicle 26.8±2.0%, significantly impaired; for reduction of LA: stimulated by IL-1β micropellet
Procedure: as §1, §8, §3, §9, §10

VEGFR-3 = test: Real-time PCR of VEGFR-3 mRNA in suture-inflamed corneas; format: in vivo, BALB/c mice; conditions: relative to vehicle-treated controls
Procedure: as §5, §6, §7

IL-1α = test: Real-time PCR of IL-1α mRNA in suture-inflamed corneas; format: in vivo, BALB/c mice; conditions: 24 h and 72 h after suture placement, vs vehicle
Procedure: as §5, §6, §7

VEGFR-2 = test: Real-time PCR of VEGFR-2 mRNA in suture-inflamed corneas; format: in vivo, BALB/c mice; conditions: 24 h and 72 h after suture placement, vs vehicle-treated group
Procedure: as §5, §6, §7

[4] = 24 h after suture placement, vehicle 81±6
[5] = 72 h after suture placement, vehicle 57±4

SMILES	angiogenic response (corneal neovessels by slit lamp biomicroscopy) [1]	significant changes in the density of lymphatic vessels [1]	BV density (CD31high/LYVE-1−) [1]	mRNA expression of VEGF-C (VEGF-C)	increases in TNF-α expression (mRNA) (TNF-α; 24 h after suture placement)	increases in TNF-α expression (mRNA) (TNF-α; 72 h after suture placement)	macrophage in inflamed cornea (macrophages)	mRNA expression of VEGF-A (VEGF-A)	mRNA expression of VEGF-D (VEGF-D)	BV density [2]	reduction of LA [2]	neutrophils in inflamed cornea (neutrophils; [4])	neutrophils in inflamed cornea (neutrophils; [5])	inhibition of neutrophils recruitment into the inflamed corneas (neutrophils)	BV density [3]	reduction of LA [3]	mRNA expression of VEGFR-3 (VEGFR-3)	expression of IL-1α (mRNA) (IL-1α)	mRNA expression of VEGFR-2 (VEGFR-2)	also measured
CCC(O)/C=C/C=C\C/C=C\C/C=C\C=C\[C@@H](O)CCCC(=O)O (mixture of isomers) [5S, 18 (+/−)-diHEPA]	–	–	–	–	–	–	–	–	–	–	–	–	–	–	–	–	–	–	–	anti-inflammatory activity, PMN infiltration (PMN infiltration): downregulation of PMN infiltration; potency compared with Resolvin E1 (PMN infiltration; at an equal dose amount): equipotent to Resolvin E1
CC[C@@H](O)/C=C/C=C\C[C@@H](O)/C=C/C=C/C=C\[C@@H](O)CCCC(=O)O [RvE1, 5S,12R,18R-trihydroxy-6Z,8E,10E,14Z,16E-EPA]	significant suppression	not observed	10.92±0.53%	lower mRNA expressions	significantly suppressed	significant lowering	49±7 cells/section	lower mRNA expressions	not significantly altered	14.1±2.2%	no significant reduction	52±4 cells/section	41±4 cells/section	~30%	18.6±2.2%	no significant reduction	not significantly altered	not significantly altered	lower mRNA expressions	–
CC/C=C\C[C@H](O)/C=C/C=C\C=C\C=C\[C@@H](O)[C@@H](O)C/C=C\CCC(=O)O [RvD1, 7S,8R,17S-trihydroxy-4Z,9E,11E,13Z,15E,19Z-docosahexaenoic acid]	significant suppression	not observed	8.4±0.39%	lower mRNA expressions	significantly suppressed	not at 72 h	57±4 cells/section	lower mRNA expressions	not significantly altered	10.9±2.3%	no significant reduction	62±4 cells/section	40±3 cells/section	~30%	17.1±2.4%	no significant reduction	not significantly altered	not significantly altered	lower mRNA expressions	–
